Results on 8 compounds are retold here after ChEMBL document CHEMBL5584335, “Investigating Active Site Binding of Ligands to High and Low Activity Carbonic Anhydrase Enzymes Using Native Mass Spectrometry” (J Med Chem, 2024).

Active and inactive are the calls of the source. No cut-off for these calls is given here.

For assay [1], the target named is T1, Carbonic anhydrase 3 (Homo sapiens, UniProt P07451). As to the kind of experiment: Binding affinity to human recombinant CA III active site expressed in Escherichia coli BL21 (DE3) pLysS cells at 18.18 uM at protein:compound ratio of 1:2 incubated for 30 mins by native mass spectrometry analysis.
Assay [2] has as its target T1, Carbonic anhydrase 3. As to the kind of experiment: Binding affinity to human recombinant CA III assessed as inhibition constant.

T1 sequence (P07451 whole entry): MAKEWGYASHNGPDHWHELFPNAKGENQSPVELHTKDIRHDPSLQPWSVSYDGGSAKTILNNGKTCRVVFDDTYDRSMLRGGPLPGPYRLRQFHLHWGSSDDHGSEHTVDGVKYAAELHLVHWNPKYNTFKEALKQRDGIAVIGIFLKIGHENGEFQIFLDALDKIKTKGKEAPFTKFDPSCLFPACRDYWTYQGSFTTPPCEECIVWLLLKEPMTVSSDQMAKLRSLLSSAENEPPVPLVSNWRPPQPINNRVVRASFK

For `CC1Cc2ccccc2N1NC(=O)c1ccc(Cl)c(S(N)(=O)=O)c1` (stereo unspecified), the result in assay [1] was inactive. On the same count and under the same terms, with `Cc1ccc(-c2cc(C(F)(F)F)nn2-c2ccc(S(N)(=O)=O)cc2)cc1` the entry was “inactive”; with `Cc1onc(-c2ccccc2)c1-c1ccc(S(N)(=O)=O)cc1`, “inactive”; with `NS(=O)(=O)c1cc(C(=O)O)c(NCc2ccco2)cc1Cl`, “inactive”. On the same count and under the same terms, with `NS(=O)(=O)c1ccc(N2CCCCS2(=O)=O)cc1` the entry was “inactive”. By Ki is commonly meant a measure of affinity in units of concentration, obtained from inhibition or displacement. As to `CCCCNc1cc(C(=O)O)cc(S(N)(=O)=O)c1Oc1ccccc1` [BUMETANIDE], the Ki in assay [2] is 3400 µM. In addition, the outcome in assay [1] was inactive.

Take `NS(=O)(=O)c1cc2c(cc1Cl)NCNS2(=O)=O` [HYDROCHLOROTHIAZIDE]: the Ki in assay [2] was found to be 790 µM. Besides, the result in assay [1] was inactive. Take `Cc1ccccc1N1C(=O)c2cc(S(N)(=O)=O)c(Cl)cc2NC1C` (stereo unspecified) [METOLAZONE]: in assay [2], the Ki amounted to 610 µM. In addition, in assay [1], the outcome was inactive.
